From publication PMC4178217, “Quinoline 3-sulfonamides inhibit lactate dehydrogenase A and reverse aerobic glycolysis in cancer cells” (Cancer & Metabolism, 2013)
“And” between values parts separate entries of the source, which are not always exact repeats. Equal values may be shown once.

System: Snu398 cells
Details: Snu-398 conditioned medium, 10 μM, 24 h
Procedure: Ten million Snu398 or HepG2 cells per flask were plated in R10 medium in T150 tissue culture flasks and allowed to attach overnight. The following morning, medium was replaced with medium containing either DMSO or 10 μM LDHA inhibitor, and cells were incubated for 24 h at 37°C. The conditioned medium was collected and cells were washed, lifted by trypsinization and pelleted. Both medium and cell samples were submitted for mass spectroscopy (MS) analysis of over 500 individual metabolites. All samples were prepared in replicates of five.

COc1ncc(-c2ccc3c(Nc4cc(C(=O)O)cc(C5CCCC5)c4)c(S(=O)(=O)NC4CC4)cnc3c2)c(OC)n1 [Compound 2]
fold change 1-oleoylglycerophosphocholine: 1.05
fold change 1-palmitoleoylglycerophosphocholine*: 0.90
fold change 1-palmitoylglycerophosphocholine: 1.01
fold change 1-stearoylglycerophosphocholine: 1.19
fold change 2'-O-methylguanosine: 0.80
fold change 2-aminobutyrate: 0.99
fold change 2-hydroxybutyrate (AHB): 0.99
fold change 2-hydroxyglutarate: 1.18
fold change 2-methylbutyroylcarnitine: 1.01
fold change 2-methylbutyrylglycine: 1.13
fold change 2-oleoylglycerophosphocholine*: 0.98
fold change 2-palmitoylglycerophosphocholine*: 1.26
fold change 2-stearoylglycerophosphocholine*: 1.42
fold change 3-(4-hydroxyphenyl)lactate: 0.97
fold change 3-dehydrocarnitine*: 1.02
fold change 3-indoxyl sulfate: 1.06
fold change 3-methyl-2-oxobutyrate: 1.05
fold change 3-methyl-2-oxovalerate: 1.03
fold change 4-acetamidobutanoate: 0.90
fold change 4-guanidinobutanoate: 0.77
fold change 4-methyl-2-oxopentanoate: 1.21
fold change 5-oxoproline: 1.19
fold change 6'-sialyllactose: 1.11
fold change C-glycosyltryptophan*: 0.98
fold change HEPES: 0.97
fold change Isobar: 2-propylpentanoic acid, 2-ethylhexanoic acid: 1.15
fold change N1-methyladenosine: 1.01
fold change N1-methylguanosine: 0.95
fold change N6-carbamoylthreonyladenosine: 0.91
fold change N-acetylaspartate (NAA): 0.99
fold change N-acetylneuraminate: 0.79
fold change N-acetylornithine: 1.11
fold change X - 02952: 0.28
fold change X - 02973: 1.02
fold change X - 03090: 1.76
fold change X - 04015: 1.25
fold change X - 04133: 1.17
fold change X - 04135: 1.33
fold change X - 04148: 1.14
fold change X - 04252: 0.37
fold change X - 04357: 3.15
fold change X - 05907: 1.01
fold change X - 06126: 0.91
fold change X - 06911: 0.81
fold change X - 08172: 1.18
fold change X - 08889: 1.38
fold change X - 08895: 0.98
fold change X - 09008: 1.34
fold change X - 09026: 1.05
fold change X - 10475: 1.45
fold change X - 10476: 1.32
fold change X - 10634: 0.42
fold change X - 10740: 0.87
fold change X - 10869: 0.69
fold change X - 11081: 1.19
fold change X - 11315: 1.04
fold change X - 11533: 0.87
fold change X - 11593: 0.89
fold change X - 11787: 0.94
fold change X - 12013: 0.89
fold change X - 12015: 1.01
fold change X - 12117: 1.10
fold change X - 12216: 0.96
fold change X - 12339: 1.00
fold change X - 12435: 0.96
fold change X - 12602: 0.99
fold change X - 12729: 1.00
fold change X - 12749: 0.94
fold change X - 12776: 1.11
fold change X - 12786: 2.02
fold change X - 12792: 1.10
fold change X - 12799: 0.97
fold change X - 12944: 1.00
fold change X - 13100: 0.98
fold change X - 13103: 0.98
fold change X - 13104: 1.21
fold change X - 13110: 1.01
fold change X - 13115: 0.80
fold change X - 13117: 0.96
fold change X - 13166: 0.94
fold change X - 13483: 0.87
fold change X - 13491: 1.35
fold change X - 13494: 1.24
fold change X - 13496: 1.00
fold change X - 13507: 1.11
fold change X - 13553: 1.09
fold change X - 13581: 2.54
fold change X - 13857: 0.86
fold change X - 14056: 1.73
fold change X - 14574: 1.45
fold change X - 14588: 0.84
fold change X - 15558: 1.10
fold change X - 15559: 1.21
fold change X - 15562: 1.10
fold change X - 15563: 1.18
fold change X - 15678: 1.19
fold change X - 15808: 1.12
fold change X - 16103: 0.95
fold change X - 16116: 0.82
fold change X - 16200: 1.20
fold change X - 16206: 1.03
fold change X - 16439: 1.19
fold change X - 16444: 1.03
fold change X - 17112: 0.96
fold change X - 17430: 1.10
fold change acetylcarnitine: 0.97
fold change acetylphosphate: 1.00
fold change alanine: 1.20
fold change alanylglutamine: 0.94
fold change allantoin: 1.08
fold change arabitol: 1.09
fold change arachidonate (20:4n6): 1.01
fold change arginine: 0.98
fold change asparagine: 0.74
fold change aspartate: 1.09
fold change aspartylleucine: 0.96
fold change beta-alanine: 0.86
fold change beta-hydroxyisovalerate: 0.93
fold change beta-hydroxypyruvate: 1.05
fold change betaine: 1.00
fold change biotin: 0.97
fold change butyrylcarnitine: 0.76
fold change caproate (6:0): 1.01
fold change caprylate (8:0): 1.04
fold change carnitine: 0.93
fold change catechol sulfate: 1.01
fold change choline: 0.97
fold change citrate: 1.02
fold change citrulline: 0.95
fold change creatine: 1.01
fold change creatinine: 1.07
fold change cyclo(leu-ala): 0.93
fold change cysteine: 1.01
fold change cysteine sulfinic acid: 0.95
fold change cysteine-glutathione disulfide: 1.41
fold change deoxycarnitine: 0.95
fold change dimethyl sulfoxide*: 1.03
fold change dimethylarginine (SDMA + ADMA): 1.30
fold change docosahexaenoate (DHA; 22:6n3): 1.03
fold change docosapentaenoate (n3 DPA; 22:5n3): 0.89
fold change erythritol: 1.01
fold change erythronate*: 0.96
fold change ethanolamine: 1.09
fold change folate: 1.00
fold change fructose: 1.01
fold change fumarate: 0.99
fold change gamma-glutamylisoleucine*: 0.74
fold change gamma-glutamylleucine: 0.89
fold change gamma-glutamylphenylalanine: 1.18
fold change gamma-glutamylvaline: 0.85
fold change glucose: 1.07
fold change glutamate: 1.05
fold change glutamine: 1.15
fold change glycerate: 1.15
fold change glycerol: 1.10
fold change glycerol 3-phosphate (G3P): 0.95
fold change glycerophosphorylcholine (GPC): 0.86
fold change glycine: 1.06
fold change glycochenodeoxycholate: 0.90
fold change glycocholate: 1.02
fold change glycylglycine: 0.90
fold change glycylleucine: 0.84
fold change glycyltyrosine: 0.99
fold change glycylvaline: 0.96
fold change heme*: 0.94
fold change hexadecanedioate: 1.07
fold change hippurate: 0.98
fold change histidine: 1.01
fold change homostachydrine*: 1.01
fold change hydroquinone: 0.85
fold change indolelactate: 1.02
fold change isobutyrylcarnitine: 1.03
fold change isoleucine: 0.96
fold change isovalerate: 0.68
fold change isovalerylcarnitine: 1.02
fold change kynurenate: 1.10
fold change kynurenine: 1.07
fold change lactate: 0.94
fold change leucine: 0.95
fold change lysine: 0.51
fold change lysylleucine: 0.85
fold change malate: 0.95
fold change mannitol: 0.82
fold change methionine: 0.94
fold change myo-inositol: 0.98
fold change nicotinamide: 0.87
fold change ornithine: 0.80
fold change p-aminobenzoate (PABA): 0.98
fold change p-cresol sulfate: 0.96
fold change palmitoyl sphingomyelin: 0.96
fold change pantothenate: 0.98
fold change phenol red: 0.99
fold change phenol sulfate: 1.00
fold change phenylacetylglycine: 0.95
fold change phenylalanine: 0.89
fold change phosphate: 1.01
fold change pipecolate: 1.02
fold change pro-hydroxy-pro: 1.06
fold change proline: 1.13
fold change propionylcarnitine: 0.95
fold change pseudouridine: 1.02
fold change putrescine: 0.82
fold change pyridoxate: 0.95
fold change pyridoxine (Vitamin B6): 1.02
fold change pyruvate: 3 and 2.66
fold change ribitol: 1.06
fold change riboflavin (Vitamin B2): 1.02
fold change scyllo-inositol: 0.89
fold change serine: 0.84
fold change serotonin (5HT): 1.03
fold change sorbitol: 0.98
fold change succinate: 0.98
fold change taurocholate: 0.89
fold change taurodeoxycholate: 0.96
fold change tetradecanedioate: 0.80
fold change thiamin (Vitamin B1): 1.12
fold change threitol: 0.96
fold change threonine: 0.96
fold change trans-4-hydroxyproline: 1.06
fold change tryptophan: 0.90
fold change tyrosine: 0.91
fold change uracil: 0.99
fold change urea: 1.10
fold change uridine: 1.20
fold change valerylcarnitine: 0.97
fold change valine: 0.95
fold change xylitol: 1.13
